The text below walks through data of ChEMBL document CHEMBL1141443, “Antifibrotic phenanthrenes of Dendrobium nobile stems” (J Nat Prod, 2007).

The structures appear in SMILES notation. Several values for one entry are separate records, joined by “and”; a condition that tells them apart may be missing. Identical values can stand only once. A value given as a limit tells only on which side of the number the result lay.

Data set [1] in a line: Antiproliferative activity against rat HSC-T6 cells after 48 hrs by MTT assay. It is filed as functional, cell-based. (In general: Formazan colour is commonly taken as a measure of viable cells.)
For a further data set, the system named is Hepatocyte. As to the kind of experiment: Cytotoxicity against rat hepatocytes at 10 to 100 uM. It is filed as cell-based.
Setting [2] is: Rattus norvegicus, HSC-T6, 48 h.

On to `COc1ccc2c(ccc3cc(OC)c(O)c(OC)c32)c1`, for which the IC50 in data set [1] (setting [2]) is > 100 µM. In the data set with Hepatocyte, the Activity result is given as “Non-toxic”.
For `COc1ccc2c(c1)CCc1c(-c3c(O)c(OC)c(OC)c4c3CCc3cc(OC)ccc3-4)c(O)c(OC)c(OC)c1-2` the same measures were 88.2 µM and “Non-toxic”.
`COc1cc(O)c2c(c1)CCc1cccc(O)c1-2`: the 50% inhibitory concentration (IC50) in data set [1] (setting [2]) was > 100 µM. Moreover, the Activity entry with Hepatocyte is “Non-toxic”.
Turning to `COc1ccc2c(ccc3cc(O)c(OC)c(OC)c32)c1O`, in data set [1] (setting [2]), it took 54.1 µM to reach half-maximal inhibition (IC50). For the same compound, in the data set with Hepatocyte, the Activity result is listed as “Non-toxic”.
As for `COc1ccc2c(c1O)CCc1cc(O)c(OC)c(OC)c1-2`, the IC50 in data set [1] (setting [2]) came to 35.7 µM. The Activity entry in the data set on Hepatocyte is on record as “Non-toxic”.
For `COc1cc2cc(O)c(O)c(OC)c2c2c(O)cccc12` the same measures were 9 µM and “Non-toxic”.
Regarding `COc1ccc2c(c1)CCc1cc(OC)c(O)c(OC)c1-2`, the IC50 in data set [1] (setting [2]) was > 100 µM. In the data set with Hepatocyte, the Activity entry is on record as “Non-toxic”.
On to `COc1ccc2c(c1)CCc1cc(O)c(OC)c(OC)c1-2`, for which the IC50 in data set [1] (setting [2]) was > 100 µM. Moreover, the Activity result in the data set on Hepatocyte was “Non-toxic”.
Regarding `COc1c(O)cc2ccc3cccc(O)c3c2c1OC`, the IC50 in data set [1] (setting [2]) is > 100 µM. In the data set on Hepatocyte, the Activity result is recorded as “Non-toxic”.
On to `COc1cc2ccc3cccc(O)c3c2c(OC)c1O` [BULBOPHYLLANTHRIN], for which 50.9 µM corresponded to half-maximal inhibition in data set [1] (setting [2]) (IC50). In the data set on Hepatocyte, the Activity result is listed as “Non-toxic”.
Consider `COc1ccc2c(c1)CCc1cc(O)cc(OC)c1-2` [COELONIN], for which, in data set [1] (hsc-t6), the IC50 is 13.4 µM and 69.1 µM. The Activity entry in the data set with Hepatocyte is on record as “Non-toxic”.
`COC1=CC(=O)c2ccc3cc(OC)cc(O)c3c2C1=O` [DENBINOBIN] had an IC50 in data set [1] (setting [2]) of 15.2 µM. The Activity result with Hepatocyte was “Non-toxic”.
For `COc1cc2c(c(O)c1OC)-c1ccc(O)cc1CC2` [EPHEMERANTHOL A] the same measures were 79.2 µM and “Non-toxic”.
As for `O=C(O[C@@H]1Cc2c(O)cc(O)cc2O[C@@H]1c1cc(O)c(O)c(O)c1)c1cc(O)c(O)c(O)c1` [EPIGALOCATECHIN GALLATE], in data set [1] (setting [2]), the IC50 turned out to be 9.9 µM.
With `COc1c(O)cc2c(c1OC)-c1ccc(O)cc1CC2` [ERIANTHRIDIN], the midpoint of inhibition in data set [1] (setting [2]), the IC50, lay at 73.2 µM. Besides, the Activity entry in the data set with Hepatocyte is listed as “Non-toxic”.
`COc1c(O)c(O)cc2ccc3cccc(O)c3c12` [FIMBRIOL B] yielded an IC50 in data set [1] (setting [2]) of 11 µM. The Activity result in the data set on Hepatocyte is given as “Non-toxic”.
The compound `COc1cc(O)c2c(c1)CCc1cc(O)ccc1-2` [LUSIANTHRIDIN] gave an IC50 in data set [1] (setting [2]) of 61.2 µM. Further, in the data set with Hepatocyte, the Activity result was “Non-toxic”.
As for `COc1c(O)cc2ccc3cc(O)ccc3c2c1OC` [NUDOL], the IC50 in data set [1] (setting [2]) is > 100 µM. For the same compound, the Activity entry in the data set on Hepatocyte is “Non-toxic”.
For `COc1c(OC)c2cc(O)cc(OC)c2c2c(O)cccc12` [PLICATOL A], the IC50 in data set [1] (setting [2]) is > 100 µM. Also, the Activity entry with Hepatocyte was “Non-toxic”.

One may read the IC50 as the point on the concentration scale where inhibition reaches its midpoint. A lower IC50 goes with greater potency.
